According to patent publication US20190255091A1, “RNAi AGENTS FOR [sequence] B VIRUS INFECTION” (priority 2016, published 2019):

System: Hepatitis B Virus (HBV)
Assay: Serum HBsAg levels in pHBV model mice (ELISA)
Assay type: in vivo
Design: key to Average HBsAg levels normalized to pre-treatment (day −1) and PBS control / Average HBsAg levels normalized to pre-treatment and PBS control: fraction of pre-treatment level, relative to PBS control mean
Conditions: for Average HBsAg levels normalized to pre-treatment (day −1) and PBS control: single s.c. injection day 1, Example 7; for Average HBsAg normalized to pre-treatment and PBS control: single s.c. injection on day 1; for Average HBsAg levels normalized to pre-treatment and PBS control (Group A used as control): 3.0 mg/kg, s.c. injection on day 1 and day 22, Example 10
Source text: Six to eight-week-old female NOD.CB17-Prkdscid/NcrCrl (NOD-SCID) mice were transiently transfected in vivo with MC-HBV1.3 by hydrodynamic tail vein injection (Yang P L et al. “Hydrodynamic injection of viral DNA: a mouse model of acute hepatitis B virus infection,” PNAS USA 2002 Vol. 99: p. 13825-13830), administered 30 to 45 days prior to administration of an HBV RNAi agent or control. MC-HBV1.3 is a plasmid-derived minicircle that contains the same terminally redundant human hepatitis B virus sequence HBV1.3 as in plasmid pHBV1.3 and in the HBV1.3.32 transgenic mice (GenBank accession #V01460) (Guidotti L G et al., “High-level hepatitis B virus replication in transgenic mice,” J Virol 1995 Vol. 69, p 6158-6169.). 5 or 10 μg MC-HBV1.3 in Ringer's Solution in a total volume of 10% of the animal's body weight was injected into mice via tail vein to create pHBV model of chronic HBV infection. The solution was injected through a 27-gauge needle in 5-7 seconds as previously described (Zhang G et al., “High levels of foreign gene expression in hepatocytes after tail vein injection of naked plasmid DNA.” Human Gene Therapy 1999 Vol. 10, p 1735-1737.). At pre-dose (either day 1 pre-dose, day −1, or day −2), Hepatitis B surface antigen (HBsAg) HBsAg expression levels in serum were measured by ELISA and the mice were grouped according to average HBsAg expression levels.
HBV expression levels were normalized to pre-administration expression levels and to control mice injected with phosphate buffered saline (“PBS”).
Mice were anesthetized with 2-3% isoflurane and blood samples were collected from the submandibular area into serum separation tubes (Sarstedt AG & Co., Nümbrecht, Germany). Blood was allowed to coagulate at ambient temperature for 20 min. The tubes were centrifuged at 8,000×g for 3 min to separate the serum and stored at 4° C.
Serum was collected and diluted 10 to 8000-fold in PBS containing 5% nonfat dry milk. […] HBsAg levels were determined with a GS HBsAg EIA 3.0 kit (Bio-Rad Laboratories, Inc., Redmond, Wash.) as described by the manufacturer. Recombinant HBsAg protein, ayw subtype, also diluted in nonfat milk in PBS, was used as a primary standard (Aldevron).
HBsAg expression for each animal was normalized to the control group of mice injected with PBS in order to account for the non-treatment related decline in expression of MC-HBV1.3. First, the HBsAg level for each animal at a time point was divided by the pre-treatment level of expression in that animal in order to determine the ratio of expression “normalized to pre-treatment”. Expression at a specific time point was then normalized to the control group by dividing the “normalized to pre-treatment” ratio for an individual animal by the average “normalized to pre-treatment” ratio of all mice in the normal PBS control group.

AD04776: HBV RNAi agent duplex AM05850-AS/AM06150-SS (antisense UACCAAUUUAUGCCUACAGCC; sense GGCUGUAGGCAUAAAUUGGUA; chemistry not fully specified)
Average HBsAg levels normalized to pre-treatment (day −1) and PBS control (Day 8, 1.0 mg/kg): 0.279 ± 0.057
Average HBsAg levels normalized to pre-treatment (day −1) and PBS control (Day 8, 2.0 mg/kg): 0.224 ± 0.018
Average HBsAg normalized to pre-treatment and PBS control (Day 8, 2.0 mg/kg, Example 15): 0.339 ± 0.076
Average HBsAg levels normalized to pre-treatment and PBS control (Group A used as control) (Day 8): 0.197 ± 0.081
Average HBsAg levels normalized to pre-treatment (day −1) and PBS control (Day 8, 4.0 mg/kg): 0.117 ± 0.069
Average HBsAg levels normalized to pre-treatment (day −1) and PBS control (Day 15, 1.0 mg/kg): 0.245 ± 0.032
Average HBsAg levels normalized to pre-treatment (day −1) and PBS control (Day 15, 2.0 mg/kg): 0.161 ± 0.009
Average HBsAg normalized to pre-treatment and PBS control (Day 15, 2.0 mg/kg, Example 15): 0.414 ± 0.126
Average HBsAg levels normalized to pre-treatment and PBS control (Group A used as control) (Day 15): 0.308 ± 0.138
Average HBsAg levels normalized to pre-treatment (day −1) and PBS control (Day 15, 4.0 mg/kg): 0.085 ± 0.039
Average HBsAg levels normalized to pre-treatment (day −1) and PBS control (Day 22, 1.0 mg/kg): 0.374 ± 0.121
Average HBsAg levels normalized to pre-treatment (day −1) and PBS control (Day 22, 2.0 mg/kg): 0.310 ± 0.016
Average HBsAg normalized to pre-treatment and PBS control (Day 22, 2.0 mg/kg, Example 15): 0.385 ± 0.067
Average HBsAg levels normalized to pre-treatment and PBS control (Group A used as control) (Day 22): 0.476 ± 0.156
Average HBsAg levels normalized to pre-treatment (day −1) and PBS control (Day 22, 4.0 mg/kg): 0.148 ± 0.045
Average HBsAg levels normalized to pre-treatment (day −1) and PBS control (Day 29, 1.0 mg/kg): 0.304
Average HBsAg levels normalized to pre-treatment (day −1) and PBS control (Day 29, 2.0 mg/kg): 0.482
Average HBsAg normalized to pre-treatment and PBS control (Day 29, 2.0 mg/kg, Example 15): 0.450 ± 0.075
Average HBsAg levels normalized to pre-treatment and PBS control (Group A used as control) (Day 29): 0.246 ± 0.081
Average HBsAg levels normalized to pre-treatment (day −1) and PBS control (Day 29, 4.0 mg/kg): 0.198
Average HBsAg normalized to pre-treatment and PBS control (Day 36, 2.0 mg/kg, Example 15): 0.617 ± 0.116
Average HBsAg levels normalized to pre-treatment and PBS control (Group A used as control) (Day 36): 0.244 ± 0.097
Average HBsAg normalized to pre-treatment and PBS control (Day 43, 2.0 mg/kg, Example 15): 0.643 ± 0.154
Average HBsAg levels normalized to pre-treatment and PBS control (Group A used as control) (Day 43): 0.179 ± 0.061
Average HBsAg normalized to pre-treatment and PBS control (Day 50, 2.0 mg/kg, Example 15): 0.665 ± 0.199
knockdown of HBsAg compared to PBS control (Example 15, administered alone or in combination with AD04872, across each of the time points measured): significant knockdown of HBsAg

AD04982: HBV RNAi agent duplex AM06464-AS/AM06150-SS (antisense UACCAAUUUAUGCCUACAGCC; sense GGCUGUAGGCAUAAAUUGGUA; chemistry not fully specified)
Average HBsAg levels normalized to pre-treatment (day −1) and PBS control (Day 8, 1.0 mg/kg): 0.519 ± 0.058
Average HBsAg levels normalized to pre-treatment (day −1) and PBS control (Day 8, 2.0 mg/kg): 0.342 ± 0.062
Average HBsAg levels normalized to pre-treatment (day −1) and PBS control (Day 15, 1.0 mg/kg): 0.375 ± 0.012
Average HBsAg levels normalized to pre-treatment (day −1) and PBS control (Day 15, 2.0 mg/kg): 0.255 ± 0.046
Average HBsAg levels normalized to pre-treatment (day −1) and PBS control (Day 22, 1.0 mg/kg): 0.422 ± 0.046
Average HBsAg levels normalized to pre-treatment (day −1) and PBS control (Day 22, 2.0 mg/kg): 0.272 ± 0.122
Average HBsAg levels normalized to pre-treatment (day −1) and PBS control (Day 29, 1.0 mg/kg): 0.525
Average HBsAg levels normalized to pre-treatment (day −1) and PBS control (Day 29, 2.0 mg/kg): 0.314
